Source: ChEMBL document CHEMBL2062363, “Ligand-based design, in silico ADME-Tox filtering, synthesis and biological evaluation to discover new soluble 1,4-DHP-based CFTR activators” (Eur J Med Chem, 2012)

Tests used:
[1] = target: L-type voltage-dependent Ca2+ channel (Homo sapiens, UniProt O60840+Q01668+Q13698+Q13936); assay: Inhibition of L-type voltage-dependent Ca2+ channel at 1 uM
[2] = Potentiation of forskolin-induced CFTR deltaF508 mutant expressed in FRT cells co-expressing halide-sensitive YFP-H148Q/I152L by fluorescence quenching assay; format: cell-based, Homo sapiens

SMILES | inhibition at 1 µM [1] [%] | pEC50 for potentiation of CFTR deltaF508 (activation potency) [2]
CCOC(=O)C1=C(C)NC(C)=C(C(=O)OCC)C1c1ccccc1 | 100 | 6.4
CCOC(=O)C1=C(C)NC(C)=C(C(=O)OCC)C1c1cccc([N+](=O)[O-])c1 | 100 | –
CCOC(=O)C1=C(C)N=C(C)/C(=C(/O)OCC)C1/C=C/c1ccccc1 (centres undefined) | 46.3 | –
CCOC(=O)C1=C(C)NC(C)=C(C(=O)OCC)C1c1c(F)c(F)c(F)c(F)c1F | 100 | –
C=CCOC(=O)C1=C(C)NC(C)=C(C(=O)OCC=C)C1c1ccc(C(C)(C)C)cc1 | 5.9 | 6.96
CCOC(=O)C1=C(C)NC(C)=C(C(=O)OCC)C1c1ccc(C)cc1 | 29.4 | –
COC(=O)C1=C(C)N(c2ccc(N(C)C)cc2)C(C)=C(C(=O)OC)C1c1ccc(Cl)cc1 | 12.9 | –
CCOC(=O)C1=C(C)NC(C)=C(C(=O)OCC)C1c1ccc(F)cc1 | 98.6 | 5.87
CCOC(=O)C1=C(C)NC(C)=C(C(=O)OCC)C1c1cc(Cl)cc(Cl)c1OC | 100 | 6.51
COC(=O)C1=C(C)NC(C)=C(C(=O)OC)C1c1ccc(Cl)cc1Cl | 100 | 6.72
CCOC(=O)C1=C(C)NC(C)=C(C(=O)OC)C1c1ccc(Cl)cc1 (centres undefined) | 100 | 6.51
COC(=O)C1=C(C)NC(C)=C(C(=O)OC)C1c1ccccc1Cl | 100 | 6.34
COC(=O)C1=C(C)NC(C)=C(C(=O)OC)C1c1ccc(OC)cc1 | 9.1 | 6.29
COC(=O)C1=C(C)NC(C)=C(C(=O)OC)C1c1ccccc1F | 95.9 | 6.26
CCOc1ccc(C2C(C(=O)OC)=C(C)NC(C)=C2C(=O)OC)cc1 | 14.6 | 5.27
COC(=O)C1=C(C)NC(C)=C(C(=O)OC)C1c1ccc(OC)c(Br)c1 | 32.4 | 5.48
COC(=O)C1=C(C)NC(C)=C(C(=O)OC)C1c1ccc(OC)c([N+](=O)[O-])c1 | 15.6 | 4.93

SMILES | inhibition at 1 µM [1] [%] | pEC50 for potentiation of CFTR deltaF508 (activation potency) [2]
COC(=O)C1=C(C)NC(C)=C(C(=O)OC)C1c1ccc2c(c1)OCO2 | 37.2 | 5.71
CCOC(=O)C1=C(C)NC(C)=C(C(=O)OCC)C1c1ccc(C(C)(C)C)cc1 | 32.1 | 5.89
CC1=C(C(=O)OCc2ccccc2)C(c2ccc(O)cc2)C(C(=O)OCc2ccccc2)=C(C)N1 | 72.8 | 5.92
CC1=C(C(=O)OCc2ccccc2)C(c2ccc(Cl)cc2)C(C(=O)OCc2ccccc2)=C(C)N1 | 92.9 | 5.23
CCOC(=O)C1=C(C)NC(C)=C(C(=O)OCC)C1c1ccc(OC)cc1 | 34.2 | –
COC(=O)C1=C(C)N(C)C(C)=C(C(=O)OC)C1c1ccc(-c2ccccc2)cc1 | 23.5 | 5.63
CCOC(=O)C1=C(C)NC(C)=C(C(=O)OCC)C1c1c(Cl)cccc1Cl | 100 | 6.52
C=CCOC(=O)C1=C(C)NC(C)=C(C(=O)OCC=C)C1c1ccc(Cl)c(Cl)c1 | 87.2 | 6.21
CCOC(=O)C1=C(C)NC(C)=C(C(=O)OCC)C1c1ccc(OC)c(OC)c1 | 100 | 6.21
CCOC(=O)C1=C(C)NC(C)=C(C(=O)OC)C1c1cc(Cl)cc(Cl)c1OC (centres undefined) | 100 | 6.62
CCOC(=O)C1=C(C)NC(C)=C(C(=O)OCC)C1c1ccccc1Cl | 100 | 6.59
CCOc1ccc(C2C(C(=O)OC)=C(C)NC(C)=C2C(=O)OC)cc1OC | 22.6 | 5.62
CCOC(=O)C1=C(C)NC(C)=C(C(=O)OCC)C1c1ccc(O)c(OCC)c1 | 22.8 | 5.35
COc1cc(C2C(C(=O)OCc3ccccc3)=C(C)NC(C)=C2C(=O)OCc2ccccc2)ccc1O | 44.9 | 5.28
COC(=O)C1=C(C)N(C)C(C)=C(C(=O)OC)C1c1ccc(Cl)c(Cl)c1 | 45.6 | 4.89
COC(=O)C1=C(C)N=C(C)/C(=C(/O)OC)C1c1cccc(Cl)c1 (centres undefined) | 100 | 6.22

More lines, now with the values ahead:

inhibition at 1 µM [1] [%] | pEC50 for potentiation of CFTR deltaF508 (activation potency) [2] | SMILES
79.2 | – | CCOC(=O)C1=C(C)NC(C)=C(C(=O)OC)C1c1ccc([N+](=O)[O-])cc1 (centres undefined)
100 | 6.54 | CCOC(=O)C1=C(C)NC(C)=C(C(=O)OCC)C1c1cccc(Br)c1
19.7 | – | COC(=O)C1=CNC=C(C(=O)OC)C1c1ccccc1Cl
27.6 | – | CCOC(=O)C1=C(C)N=C(C)/C(=C(/O)OCC)C1/C=C/c1ccccc1OC (centres undefined)
93.3 | – | CCOC(=O)C1=C(C)NC(C)=C(C(=O)OCC)C1c1ccc(Cl)cc1
18.8 | 5.48 | COC(=O)C1=C(C)N=C(C)/C(=C(/O)OC)C1/C=C/c1ccccc1 (centres undefined)
38.7 | – | CCOC(=O)C1=C(C)N(c2ccc(OC)cc2)C(C)=C(C(=O)OCC)C1c1ccccc1
41.8 | 6.09 | CCOC(=O)C1=C(C)NC(C)=C(C(=O)OCC)C1c1ccc(OC)cc1OC
100 | 6.06 | COC(=O)C1=C(C)NC(C)=C(C(=O)OCCCBr)C1c1cccc([N+](=O)[O-])c1 (centres undefined)
86.9 | 5.85 | CCOC(=O)C1=C(C)NC(C)=C(C(=O)OC)C1c1ccco1 (centres undefined)
37.6 | 6.15 | CCOC(=O)C1=C(C)NC(C)=C(C(=O)OC)C1c1ccc(C)o1 (centres undefined)
100 | – | CCOC(=O)C1=C(C)NC(C)=C(C(=O)OC)C1c1ccccc1 (centres undefined)
92.6 | 5.96 | COC(=O)C1=C(C)NC(C)=C(C(=O)OC)C1c1ccc(Cl)cc1
27.1 | 6.3 | CCOC(=O)C1=C(C)NC(C)=C(C(=O)OCC)C1c1ccc(Br)cc1
100 | 6.1 | CCOC(=O)C1=C(C)NC(C)=C(C(=O)OCC)C1c1ccc(Cl)c(Cl)c1
100 | 6.89 | CCOC(=O)C1=C(C)NC(C)=C(C(=O)OC)C1c1ccc(Cl)c(Cl)c1 (centres undefined)
54.9 | 6.18 | COC(=O)C1=C(C)NC(C)=C(C(=O)OC)C1c1ccc(C(C)C)cc1
100 | 5.93 | COCCOC(=O)C1=C(C)NC(C)=C(C(=O)OCCOC)C1c1cccc([N+](=O)[O-])c1

inhibition at 1 µM [1] [%] | pEC50 for potentiation of CFTR deltaF508 (activation potency) [2] | SMILES
35.1 | 5.47 | COC(=O)C1=C(C)N(C)C(C)=C(C(=O)OC)C1c1ccc(Cl)c([N+](=O)[O-])c1
42.2 | 5.23 | COC(=O)C1=C(C)N(C)C(C)=C(C(=O)OC)C1c1cccc(Cl)c1Cl
40.2 | 4.89 | COC(=O)C1=C(C)N(C)C(C)=C(C(=O)OC)C1c1cccc(Cl)c1
34.7 | 5.59 | CCOC(=O)C1=C(C)NC(C)=C(C(=O)OCC)C1c1ccc(N(CC)CC)cc1
4.1 | – | COC(=O)C1=C(C)NC(C)=C(C(=O)OC)C1c1ccc(N(C)C)cc1
50.5 | 6.14 | CC1=C(C(=O)OC(C)C)C(c2ccc(Cl)cc2)C(C(=O)OC(C)C)=C(C)N1
23.3 | 5.41 | COc1ccc(C(=O)OC2C(C(=O)OCc3ccccc3)=C(C)NC(C)=C2C(=O)OCc2ccccc2)cc1OC
22.1 | 5.76 | COc1ccc(C2C(C(=O)OC(C)C)=C(C)NC(C)=C2C(=O)OC(C)C)cc1OC
48.2 | 6.52 | C=CCOC(=O)C1=C(C)NC(C)=C(C(=O)OCC=C)C1c1cccc(Oc2ccccc2)c1
30.4 | 6.1 | CCOC(=O)C1=C(C)NC(C)=C(C(=O)OCC)C1c1ccc(N(C)C)cc1
58.7 | 6.29 | CCOC(=O)C1=C(C)NC(C)=C(C(=O)OCC)C1c1ccc(OCC)cc1
100 | 6.46 | COC(=O)C1=C(C)NC(C)=C(C(=O)OC)C1c1cccc(Br)c1
100 | 5.77 | COC(=O)C1=C(C)NC(C)=C(C(=O)OC)C1c1ccc(Cl)c(Cl)c1
37.4 | 6.14 | CCc1ccc(C2C(C(=O)OC)=C(C)NC(C)=C2C(=O)OC)cc1
50.6 | 5.44 | COC(=O)C1=C(C)N(C)C(C)=C(C(=O)OC)C1c1ccccc1Cl
100 | 6.8 | COC(=O)C1=C(C)N=C(C)/C(=C(/O)OC)C1c1c(F)cccc1Cl (centres undefined)
17.1 | 5.7 | COC(=O)C1=CNC=C(C(=O)OC)C1c1ccc(Cl)c(Cl)c1
100 | – | CCOC(=O)C1=C(C)NC(C)=C(C(=O)OC)C1c1cccc([N+](=O)[O-])c1 (centres undefined) [NITRENDIPINE]
